Experimental data: US20100092526A1, “NANOEMULSION THERAPEUTIC COMPOSITIONS AND METHODS OF USING THE SAME” (NanoBio Corporation, priority 2008, published 2010)
Values after ≈ are worked out from the molar mass of the structure shown. Like-named read-outs stand apart in the source and are kept apart here.

Tests used:
Burkholderia cenocepacia = assay: MIC/MBC against CF isolates (CLSI, alamar blue); conditions: Burkholderia cenocepacia
Acinetobacter baumannii [1] = assay: MIC/MBC against clinical isolates (CLSI, alamar blue); conditions: Acinetobacter baumannii
[2] = tested on: Stenotrophomonas maltophilia; assay: MIC/MBC against CF isolates (CLSI, alamar blue); conditions: Stenotrophomonas maltophilia
Acinetobacter baumannii [3] = assay: MIC/MBC of nanoemulsions against gram-negative isolates (CLSI, alamar blue); assay type: cell-based; conditions: Acinetobacter baumannii (n = 5); for MIC50: nanoemulsions in the presence of 5 mM EDTA
[4] = tested on: Stenotrophomonas maltophilia; assay: as above; assay type: cell-based; conditions: Stenotrophomonas maltophilia (n = 5); for MIC50: nanoemulsions in the presence of 5 mM EDTA
Burkholderia cepacia = assay: as above; assay type: cell-based; conditions: Burkholderia cepacia (n = 5); for MIC50 / MIC Range: nanoemulsions in the presence of 5 mM EDTA; for MIC Range: in µg/mL
Proteus mirabilis = assay: as above; assay type: cell-based; conditions: Proteus mirabilis (n = 5); for MIC50 / MIC Range: nanoemulsions in the presence of 5 mM EDTA; for MIC Range: in µg/mL
Klebsiella pneumoniae = assay: as above; assay type: cell-based; conditions: Klebsiella pneumoniae (n = 5)
Pseudomonas aeruginosa [5] = assay: as above; assay type: cell-based; conditions: Pseudomonas aeruginosa (n = 5)
Pseudomonas aeruginosa [6] = assay: MIC/MBC against CF isolates (CLSI, alamar blue); conditions: Pseudomonas aeruginosa
Escherichia coli = assay: MIC/MBC of nanoemulsions against gram-negative isolates (CLSI, alamar blue); assay type: cell-based; conditions: Escherichia coli (n = 5); for MIC50: nanoemulsions in the presence of 5 mM EDTA
Haemophilus influenzae = assay: Susceptibility (MIC/MBC) of H. influenzae clinical isolates; assay type: cell-based
[7] = CF Stenotrophomonas isolate NB41
[8] = CF Stenotrophomonas isolate NB42
[9] = CF Stenotrophomonas isolate NB43
[10] = CF Stenotrophomonas isolate NB44
[11] = CF Stenotrophomonas isolate NB45
[12] = CF Stenotrophomonas isolate Steno 1
[13] = CF Stenotrophomonas isolate Steno 2
[14] = CF Stenotrophomonas isolate Steno 3
[15] = CF Stenotrophomonas isolate Steno 4
[16] = CF Stenotrophomonas isolate Steno 6
[17] = CF Stenotrophomonas isolate Steno 8
[18] = nanoemulsions in the presence of 5 mM EDTA

CC(C)(O/N=C(\C(=O)N[C@@H]1C(=O)N2C(C(=O)[O-])=C(C[n+]3ccccc3)CS[C@H]12)c1csc(N)n1)C(=O)O [Ceftazidime]
MBC (Burkholderia cenocepacia; CF Burkholderia isolate NB21): > 32 µg/mL
MIC (Burkholderia cenocepacia; CF Burkholderia isolate NB21): 8 µg/mL (≈ 14.6 µM)
MBC (Burkholderia cenocepacia; CF Burkholderia isolate NB22): > 32 µg/mL
MIC (Burkholderia cenocepacia; CF Burkholderia isolate NB22): 8 µg/mL (≈ 14.6 µM)
MBC (Burkholderia cenocepacia; CF Burkholderia isolate NB23): > 32 µg/mL
MIC (Burkholderia cenocepacia; CF Burkholderia isolate NB23): > 32 µg/mL
MBC (Burkholderia cenocepacia; CF Burkholderia isolate NB24): 32 µg/mL (≈ 58.5 µM)
MIC (Burkholderia cenocepacia; CF Burkholderia isolate NB24): 4 µg/mL (≈ 7.32 µM)
MBC (Burkholderia cenocepacia; CF Burkholderia isolate NB25): 32 µg/mL (≈ 58.5 µM)
MIC (Burkholderia cenocepacia; CF Burkholderia isolate NB25): 16 µg/mL (≈ 29.3 µM)
MBC (Burkholderia cenocepacia; CF Burkholderia isolate NB26): 32 µg/mL (≈ 58.5 µM)
MIC (Burkholderia cenocepacia; CF Burkholderia isolate NB26): 16 µg/mL (≈ 29.3 µM)
MBC (Burkholderia cenocepacia; CF Burkholderia isolate NB27): 16 µg/mL (≈ 29.3 µM)
MIC (Burkholderia cenocepacia; CF Burkholderia isolate NB27): 8 µg/mL (≈ 14.6 µM)
MBC (Burkholderia cenocepacia; CF Burkholderia isolate NB28b): 16 µg/mL (≈ 29.3 µM)
MIC (Burkholderia cenocepacia; CF Burkholderia isolate NB28b): 16 µg/mL (≈ 29.3 µM)
MBC (Burkholderia cenocepacia; CF Burkholderia isolate NB29): > 32 µg/mL
MIC (Burkholderia cenocepacia; CF Burkholderia isolate NB29): 4 µg/mL (≈ 7.32 µM)
MBC (Burkholderia cenocepacia; CF Burkholderia isolate NB30): 2 µg/mL (≈ 3.66 µM)
MIC (Burkholderia cenocepacia; CF Burkholderia isolate NB30): 2 µg/mL (≈ 3.66 µM)
MIC50 (Acinetobacter baumannii [1]): > 32 µg/mL
MIC90 (Acinetobacter baumannii [1]): > 32 µg/mL
MBC (Acinetobacter baumannii [1]; Acinetobacter isolate NB31): > 32 µg/mL
MIC (Acinetobacter baumannii [1]; Acinetobacter isolate NB31): > 32 µg/mL
MBC (Acinetobacter baumannii [1]; Acinetobacter isolate NB32): > 32 µg/mL
MIC (Acinetobacter baumannii [1]; Acinetobacter isolate NB32): > 32 µg/mL
MBC (Acinetobacter baumannii [1]; Acinetobacter isolate NB33): > 32 µg/mL
MIC (Acinetobacter baumannii [1]; Acinetobacter isolate NB33): > 32 µg/mL
MBC (Acinetobacter baumannii [1]; Acinetobacter isolate NB34): 32 µg/mL (≈ 58.5 µM)
MIC (Acinetobacter baumannii [1]; Acinetobacter isolate NB34): 32 µg/mL (≈ 58.5 µM)
MBC (Acinetobacter baumannii [1]; Acinetobacter isolate NB35): > 32 µg/mL
MIC (Acinetobacter baumannii [1]; Acinetobacter isolate NB35): > 32 µg/mL
MBC (Acinetobacter baumannii [1]; Acinetobacter isolate NB36): 4 µg/mL (≈ 7.32 µM)
MIC (Acinetobacter baumannii [1]; Acinetobacter isolate NB36): 2 µg/mL (≈ 3.66 µM)
MBC (Acinetobacter baumannii [1]; Acinetobacter isolate NB37): 32 µg/mL (≈ 58.5 µM)
MIC (Acinetobacter baumannii [1]; Acinetobacter isolate NB37): 32 µg/mL (≈ 58.5 µM)
MBC (Acinetobacter baumannii [1]; Acinetobacter isolate NB38): > 32 µg/mL
MIC (Acinetobacter baumannii [1]; Acinetobacter isolate NB38): > 32 µg/mL
MBC (Acinetobacter baumannii [1]; Acinetobacter isolate NB39): > 32 µg/mL
MIC (Acinetobacter baumannii [1]; Acinetobacter isolate NB39): 32 µg/mL (≈ 58.5 µM)
MBC (Acinetobacter baumannii [1]; Acinetobacter isolate NB40): > 32 µg/mL
MIC (Acinetobacter baumannii [1]; Acinetobacter isolate NB40): > 32 µg/mL
MBC (Acinetobacter baumannii [1]; read-out: MBC 50, 10 Acinetobacter isolates): > 32 µg/mL
MIC50 [2]: > 32 µg/mL
MIC90 [2]: > 32 µg/mL
MBC [2, 7]: > 32 µg/mL
MIC [2, 7]: > 32 µg/mL
MBC [2, 8]: > 32 µg/mL
MIC [2, 8]: 8 µg/mL (≈ 14.6 µM)
MBC [2, 9]: > 32 µg/mL
MIC [2, 9]: > 32 µg/mL
MBC [2, 10]: > 32 µg/mL
MIC [2, 10]: > 32 µg/mL
MBC [2, 11]: > 32 µg/mL
MIC [2, 11]: > 32 µg/mL
MBC [2, 12]: > 32 µg/mL
MIC [2, 12]: > 32 µg/mL
MBC [2, 13]: > 32 µg/mL
MIC [2, 13]: > 32 µg/mL
MBC [2, 14]: > 32 µg/mL
MIC [2, 14]: > 32 µg/mL
MBC [2, 15]: 16 µg/mL (≈ 29.3 µM)
MIC [2, 15]: 2 µg/mL (≈ 3.66 µM)
MBC [2, 16]: > 32 µg/mL
MIC [2, 16]: 32 µg/mL (≈ 58.5 µM)
MBC [2, 17]: > 32 µg/mL
MIC [2, 17]: 16 µg/mL (≈ 29.3 µM)
MBC ([2]; read-out: MBC 50, 11 CF Stenotrophomonas isolates): > 32 µg/mL
% resistant (Acinetobacter baumannii [3]): 20.0%
% susceptible (Acinetobacter baumannii [3]): 80.0%
MIC50 (Acinetobacter baumannii [3]): 4 µg/mL
% resistant [4]: 40.0/40.0%
% susceptible [4]: 40.0/40.0%
MIC50 [4]: 16 µg/mL
% resistant (Burkholderia cepacia): 0.0%
% susceptible (Burkholderia cepacia): 100.0%
MIC50 (Burkholderia cepacia): 2 µg/mL
MIC Range (Burkholderia cepacia): 2-4
% resistant (Proteus mirabilis): 0.0%
% susceptible (Proteus mirabilis): 100.0%
MIC50 (Proteus mirabilis): ≤ 1 µg/mL
MIC Range (Proteus mirabilis): <=1
% resistant (Klebsiella pneumoniae): 20.0%
% susceptible (Klebsiella pneumoniae): 80.0%
MIC50 (Klebsiella pneumoniae; [18]): ≤ 1 µg/mL
% resistant (Pseudomonas aeruginosa [5]): 0.0%
% susceptible (Pseudomonas aeruginosa [5]): 100.0%
MIC50 (Pseudomonas aeruginosa [5]; [18]): 2 µg/mL
MIC Range (Pseudomonas aeruginosa [5]; nanoemulsions in the presence of 5 mM EDTA, in µg/mL): 2-4
MBC (Pseudomonas aeruginosa [6]; CF Pseudomonas isolate NB12): 512 µg/mL (≈ 937 µM)
MIC (Pseudomonas aeruginosa [6]; CF Pseudomonas isolate NB12): 256 µg/mL (≈ 468 µM)
MBC (Pseudomonas aeruginosa [6]; CF Pseudomonas isolate NB13): 512 µg/mL (≈ 937 µM)
MIC (Pseudomonas aeruginosa [6]; CF Pseudomonas isolate NB13): 512 µg/mL (≈ 937 µM)
MBC (Pseudomonas aeruginosa [6]; CF Pseudomonas isolate NB14): > 1020 µg/mL
MIC (Pseudomonas aeruginosa [6]; CF Pseudomonas isolate NB14): 1020 µg/mL (≈ 1870 µM)
MBC (Pseudomonas aeruginosa [6]; CF Pseudomonas isolate NB15): 512 µg/mL (≈ 937 µM)
MIC (Pseudomonas aeruginosa [6]; CF Pseudomonas isolate NB15): 256 µg/mL (≈ 468 µM)
MBC (Pseudomonas aeruginosa [6]; CF Pseudomonas isolate NB16): > 1020 µg/mL
MIC (Pseudomonas aeruginosa [6]; CF Pseudomonas isolate NB16): 256 µg/mL (≈ 468 µM)
MBC (Pseudomonas aeruginosa [6]; CF Pseudomonas isolate NB19): 1020 µg/mL (≈ 1870 µM)
MIC (Pseudomonas aeruginosa [6]; CF Pseudomonas isolate NB19): 512 µg/mL (≈ 937 µM)
MBC (Pseudomonas aeruginosa [6]; CF Pseudomonas isolate NB20): 512 µg/mL (≈ 937 µM)
MIC (Pseudomonas aeruginosa [6]; CF Pseudomonas isolate NB20): 256 µg/mL (≈ 468 µM)
% resistant (Escherichia coli): 20.0%
% susceptible (Escherichia coli): 80.0%
MIC50 (Escherichia coli): ≤ 1 µg/mL

CN(C)[C@@H]1C(O)=C(C(N)=O)C(=O)[C@@]2(O)C(O)=C3C(=O)c4c(O)cccc4[C@@](C)(O)[C@H]3C[C@@H]12 [Tetracycline]
% resistant (Acinetobacter baumannii [3]): 20.0%
% susceptible (Acinetobacter baumannii [3]): 80.0%
MIC50 (Acinetobacter baumannii [3]): ≤ 2 µg/mL
MIC50 [4]: > 8 µg/mL
MIC Range (Haemophilus influenzae; H. influenzae isolates of Table 6, nanoemulsion values as μg CPC/ml or μg BA/ml): 0.5 to 16 µg/mL
MIC (Haemophilus influenzae; Haemophilus influenzae, strain 30, nanoemulsion values as μg CPC/ml or μg BA/ml): 0.5 µg/mL (≈ 1.13 µM)
MIC (Haemophilus influenzae; Haemophilus influenzae, strain 32, nanoemulsion values as μg CPC/ml or μg BA/ml): 2 µg/mL (≈ 4.5 µM)
MIC (Haemophilus influenzae; Haemophilus influenzae, strain 33, nanoemulsion values as μg CPC/ml or μg BA/ml): 1 µg/mL (≈ 2.25 µM)
MIC (Haemophilus influenzae; Haemophilus influenzae, strain 34, nanoemulsion values as μg CPC/ml or μg BA/ml): 1 µg/mL (≈ 2.25 µM)
MIC (Haemophilus influenzae; Haemophilus influenzae, strain 35, nanoemulsion values as μg CPC/ml or μg BA/ml): 0.5 µg/mL (≈ 1.13 µM)
MIC (Haemophilus influenzae; Haemophilus influenzae, strain 36, nanoemulsion values as μg CPC/ml or μg BA/ml): 1 µg/mL (≈ 2.25 µM)
MIC (Haemophilus influenzae; Haemophilus influenzae, strain 37, nanoemulsion values as μg CPC/ml or μg BA/ml): 1 µg/mL (≈ 2.25 µM)
MIC (Haemophilus influenzae; Haemophilus influenzae, strain 38, nanoemulsion values as μg CPC/ml or μg BA/ml): 0.5 µg/mL (≈ 1.13 µM)
MIC (Haemophilus influenzae; Haemophilus influenzae, strain 41, nanoemulsion values as μg CPC/ml or μg BA/ml): 1 µg/mL (≈ 2.25 µM)
MIC (Haemophilus influenzae; Haemophilus influenzae, strain 42, nanoemulsion values as μg CPC/ml or μg BA/ml): 1 µg/mL (≈ 2.25 µM)
MIC (Haemophilus influenzae; Haemophilus influenzae, strain 49247, nanoemulsion values as μg CPC/ml (P4075EC, W205EC) or μg BA/ml (W205GBA2)): 16 µg/mL (≈ 36 µM)
MIC90 (Haemophilus influenzae; Haemophilus influenzae, H. influenzae isolates of Table 6, nanoemulsion values as μg CPC/ml or μg BA/ml): 2 µg/mL (≈ 4.5 µM)
MIC50 (Burkholderia cepacia): > 8 µg/mL
MIC Range (Burkholderia cepacia): >8
% resistant (Proteus mirabilis): 100.0%
% susceptible (Proteus mirabilis): 0.0%
MIC50 (Proteus mirabilis): > 8 µg/mL
MIC Range (Proteus mirabilis): >8
% resistant (Klebsiella pneumoniae): 0.0%
% susceptible (Klebsiella pneumoniae): 100.0%
MIC50 (Klebsiella pneumoniae; [18]): ≤ 2 µg/mL
MIC Range (Klebsiella pneumoniae; [18]): <=2-4 ^
% resistant (Pseudomonas aeruginosa [5]): 40.0%
% susceptible (Pseudomonas aeruginosa [5]): 0.0%
MIC50 (Pseudomonas aeruginosa [5]; [18]): 8 µg/mL
% resistant (Escherichia coli): 80.0%
% susceptible (Escherichia coli): 20.0%
MIC50 (Escherichia coli): > 8 µg/mL
